Measurements reported in US20250368666A1, “INDAZOLE COMPOUNDS” (TYRA BIOSCIENCES, INC., priority 2022, published 2025).

Tests used:
Test in all cases: Kinase binding assay (kinase-tagged T7 phage, affinity beads, qPCR), Kd
FGFR3 (V555M) = target: T1, FGFR3 (V555M) (Homo sapiens, UniProt P22607, V555M); settings: V555M mutant; read-out: FGFR3 (V555M) (Kd nM)
T1 construct: made in house; host or cells: E. coli (BL21-derived), T7 phage
Method in brief: (§1)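 First, phage lysates carrying tagged kinase are made in E. coli at 32° C. Next, they are combined with blocked biotin-ligand streptavidin beads and compound at 0.9% final DMSO. Finally, eluted kinase is measured by qPCR and Kd is fitted with the Hill equation.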

FGFR2 = target: T2, FGFR2 (Homo sapiens, UniProt P21802); settings: read-out: FGFR2 (Kd nM)
T2 construct: made in house; host or cells: E. coli (BL21-derived), T7 phage
T2 sequence (P21802 22-821): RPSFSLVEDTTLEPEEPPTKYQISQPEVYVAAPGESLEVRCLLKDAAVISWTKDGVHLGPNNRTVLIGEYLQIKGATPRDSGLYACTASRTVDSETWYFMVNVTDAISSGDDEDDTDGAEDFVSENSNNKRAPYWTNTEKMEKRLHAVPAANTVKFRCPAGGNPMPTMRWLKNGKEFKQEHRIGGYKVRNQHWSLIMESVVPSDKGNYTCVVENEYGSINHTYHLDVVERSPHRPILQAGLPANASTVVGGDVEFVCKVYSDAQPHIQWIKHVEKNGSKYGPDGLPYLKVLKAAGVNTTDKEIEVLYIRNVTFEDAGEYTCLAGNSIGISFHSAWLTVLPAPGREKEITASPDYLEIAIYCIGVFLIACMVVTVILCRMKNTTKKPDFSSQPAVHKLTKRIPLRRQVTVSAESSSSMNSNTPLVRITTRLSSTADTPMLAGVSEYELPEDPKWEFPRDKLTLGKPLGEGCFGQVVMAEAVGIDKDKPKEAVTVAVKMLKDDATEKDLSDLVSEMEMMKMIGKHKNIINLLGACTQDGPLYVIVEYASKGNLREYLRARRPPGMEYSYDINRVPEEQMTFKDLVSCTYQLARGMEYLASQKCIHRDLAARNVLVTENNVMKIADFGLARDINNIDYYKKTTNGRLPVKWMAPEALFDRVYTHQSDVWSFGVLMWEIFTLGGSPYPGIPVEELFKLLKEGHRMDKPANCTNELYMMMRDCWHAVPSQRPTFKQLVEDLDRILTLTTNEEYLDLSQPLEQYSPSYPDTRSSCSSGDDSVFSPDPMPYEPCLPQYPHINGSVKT
Method in brief: as §1

FGFR4 = target: T3, FGFR4 (Homo sapiens, UniProt P22455); settings: read-out: FGFR4 (Kd nM)
T3 construct: made in house; host or cells: E. coli (BL21-derived), T7 phage
T3 sequence (P22455 22-802): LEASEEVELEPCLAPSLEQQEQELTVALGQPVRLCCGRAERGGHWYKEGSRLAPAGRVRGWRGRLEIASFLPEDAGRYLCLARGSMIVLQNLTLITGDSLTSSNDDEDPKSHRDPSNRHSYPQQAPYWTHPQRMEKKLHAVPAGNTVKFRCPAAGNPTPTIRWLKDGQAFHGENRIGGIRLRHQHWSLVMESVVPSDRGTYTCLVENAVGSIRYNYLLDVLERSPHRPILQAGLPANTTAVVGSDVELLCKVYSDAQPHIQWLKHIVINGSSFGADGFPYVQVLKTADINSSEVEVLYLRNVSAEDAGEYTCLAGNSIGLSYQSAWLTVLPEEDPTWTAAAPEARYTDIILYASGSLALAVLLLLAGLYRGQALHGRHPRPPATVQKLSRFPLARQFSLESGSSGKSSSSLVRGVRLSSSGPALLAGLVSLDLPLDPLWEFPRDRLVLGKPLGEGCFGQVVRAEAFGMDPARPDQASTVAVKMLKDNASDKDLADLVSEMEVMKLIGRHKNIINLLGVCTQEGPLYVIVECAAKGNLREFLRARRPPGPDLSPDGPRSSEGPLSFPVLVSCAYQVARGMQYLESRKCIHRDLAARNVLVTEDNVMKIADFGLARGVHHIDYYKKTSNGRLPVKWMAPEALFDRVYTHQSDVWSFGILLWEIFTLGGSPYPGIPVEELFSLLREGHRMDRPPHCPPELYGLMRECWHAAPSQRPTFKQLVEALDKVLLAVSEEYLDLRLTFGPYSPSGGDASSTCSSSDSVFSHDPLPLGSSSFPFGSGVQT
Method in brief: as §1

FGFR1 = target: T4, FGFR1 (Homo sapiens, UniProt P11362); settings: read-out: FGFR1 (Kd nM)
T4 construct: made in house; host or cells: E. coli (BL21-derived), T7 phage
T4 sequence (P11362 22-822): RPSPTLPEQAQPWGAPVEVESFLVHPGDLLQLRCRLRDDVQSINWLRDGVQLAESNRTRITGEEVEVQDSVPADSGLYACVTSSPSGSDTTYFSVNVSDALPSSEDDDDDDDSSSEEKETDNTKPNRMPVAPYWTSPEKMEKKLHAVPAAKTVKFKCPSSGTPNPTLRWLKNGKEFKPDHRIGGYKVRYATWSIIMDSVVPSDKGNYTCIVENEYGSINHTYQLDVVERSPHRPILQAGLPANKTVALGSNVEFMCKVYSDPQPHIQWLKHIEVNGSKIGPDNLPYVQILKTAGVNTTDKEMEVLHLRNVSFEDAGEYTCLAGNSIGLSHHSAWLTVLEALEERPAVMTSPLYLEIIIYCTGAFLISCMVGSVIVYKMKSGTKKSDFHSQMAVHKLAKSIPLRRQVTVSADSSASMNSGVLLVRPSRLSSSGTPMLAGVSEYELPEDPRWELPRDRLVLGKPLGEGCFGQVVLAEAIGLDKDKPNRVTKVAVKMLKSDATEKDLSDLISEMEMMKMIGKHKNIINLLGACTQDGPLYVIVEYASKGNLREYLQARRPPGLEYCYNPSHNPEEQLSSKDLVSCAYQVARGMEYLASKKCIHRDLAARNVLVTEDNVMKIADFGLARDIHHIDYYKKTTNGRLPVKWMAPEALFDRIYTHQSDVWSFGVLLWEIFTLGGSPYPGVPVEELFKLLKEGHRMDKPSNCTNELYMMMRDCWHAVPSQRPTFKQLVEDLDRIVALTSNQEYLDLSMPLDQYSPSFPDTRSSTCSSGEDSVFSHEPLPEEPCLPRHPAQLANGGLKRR
Method in brief: as §1

FGFR3 = target: T5, FGFR3 (Homo sapiens, UniProt P22607); settings: read-out: FGFR3 (Kd nM)
T5 construct: made in house; host or cells: E. coli (BL21-derived), T7 phage
T5 sequence (P22607 23-806): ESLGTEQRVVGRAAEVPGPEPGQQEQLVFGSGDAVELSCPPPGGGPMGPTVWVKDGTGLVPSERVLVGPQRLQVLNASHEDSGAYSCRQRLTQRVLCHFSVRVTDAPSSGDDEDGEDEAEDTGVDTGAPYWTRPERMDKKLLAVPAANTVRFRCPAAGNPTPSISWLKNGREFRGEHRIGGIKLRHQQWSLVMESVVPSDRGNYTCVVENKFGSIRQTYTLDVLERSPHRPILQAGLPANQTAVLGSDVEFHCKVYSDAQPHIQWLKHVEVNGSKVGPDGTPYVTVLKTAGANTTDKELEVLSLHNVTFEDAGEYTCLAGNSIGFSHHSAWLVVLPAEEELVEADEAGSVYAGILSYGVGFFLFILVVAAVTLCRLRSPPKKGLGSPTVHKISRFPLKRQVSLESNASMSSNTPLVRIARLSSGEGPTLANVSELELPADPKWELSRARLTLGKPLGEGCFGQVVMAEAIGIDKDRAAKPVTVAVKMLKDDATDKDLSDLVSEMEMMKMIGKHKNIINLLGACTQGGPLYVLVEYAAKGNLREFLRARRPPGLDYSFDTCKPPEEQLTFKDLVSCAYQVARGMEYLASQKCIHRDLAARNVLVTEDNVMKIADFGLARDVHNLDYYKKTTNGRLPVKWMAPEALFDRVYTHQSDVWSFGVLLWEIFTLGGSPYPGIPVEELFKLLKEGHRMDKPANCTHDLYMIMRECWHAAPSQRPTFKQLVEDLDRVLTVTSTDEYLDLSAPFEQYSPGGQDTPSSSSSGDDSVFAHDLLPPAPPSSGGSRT
Method in brief: as §1

T1 sequence (P22607 23-806 V555M): as the sequence (P22607 23-806) above, with V533M counted along it

| SMILES | Kd (FGFR3 (V555M)) | Kd (FGFR2) | Kd (FGFR4) | Kd (FGFR1) | Kd (FGFR3) |
| --- | --- | --- | --- | --- | --- |
| C[C@@H](Oc1ccc2[nH]nc(-c3cnc(N4CC(C)(CS(C)(=O)=O)C4)c(F)c3)c2c1F)c1c(Cl)cncc1Cl [Example 196, (R)-5-(1-(3,5-dichloropyridin-4-yl)ethoxy)-4-fluoro-3-(5-fluoro-6-(3-methyl-3-((methyl-sulfonyl)meth-yl)azetidin-1-yl)pyridin-3-yl)-1H-indazole] | 50 to 300 nM | > 1000 nM | 300 to 1000 nM | > 1000 nM | 300 to 1000 nM |
| CNC1(C)CN(c2ncc(-c3n[nH]c4ccc(O[C@H](C)c5c(Cl)cncc5Cl)c(F)c34)cc2F)C1 [Example 197, (R)-1-(5-(5-(1-(3,5-dichloropyridin-4-yl)ethoxy)-4-fluoro-1H-indazol-3-yl)-3-fluoropyridin-2-yl)-N,3-dimethylazetidin-3-amine] | 1 to 50 nM | > 1000 nM | 50 to 300 nM | 300 to 1000 nM | 50 to 300 nM |
| C[C@H](Oc1ccc2[nH]nc(-c3cnc(N4CC(C)(N(C)C)C4)c(F)c3)c2c1)c1c(Cl)cncc1Cl [Example 201, 1-[5-[5-[(1S)-1-(3,5-dichloro-4-pyridyl)ethoxy]-1H-indazol-3-yl]-3-fluoro-2-pyridyl]-N,N,3-trimethyl-azetidin-3-amine] | 300 to 1000 nM | 300 to 1000 nM | 300 to 1000 nM | 300 to 1000 nM | 50 to 300 nM |
| C[C@H](Oc1ccc2[nH]nc(-c3cnc(N4C[C@@H](CS(C)(=O)=O)[C@@H]4C)c(F)c3)c2c1)c1c(Cl)cncc1Cl [Example 202, 5-((S)-1-(3,5-dichloropyridin-4-yl)ethoxy)-3-(5-fluoro-6-((2S,3R)-2-methyl-3-((meth-ylsulfonyl)meth-yl)azetidin-1-yl)pyridin-3-yl)-1H-indazole] | 1 to 50 nM | > 1000 nM | 50 to 300 nM | 300 to 1000 nM | 50 to 300 nM |
| C[C@H](Oc1ccc2[nH]nc(-c3cnc(N4C[C@H](CS(C)(=O)=O)[C@H]4C)c(F)c3)c2c1)c1c(Cl)cncc1Cl [Example 208, 5-((S)-1-(3,5-dichloropyridin-4-yl)ethoxy)-3-(5-fluoro-6-((2R,3S)-2-methyl-3-((meth-ylsulfonyl)meth-yl)azetidin-1-yl)pyridin-3-yl)-1H-indazole] | 50 to 300 nM | > 1000 nM | 300 to 1000 nM | > 1000 nM | 50 to 300 nM |
| Cc1ncc(Cl)c([C@@H](C)Oc2ccc3[nH]nc(-c4cnc(N5CC(C)(NC(C)C)C5)c(F)c4)c3c2)c1Cl [Example 221, 1-[5-[5-[(1R)-1-(3,5-dichloro-2-methyl-4-pyridyl)ethoxy]-1H-indazol-3-yl]-3-fluoro-2-pyridyl]-N-isopropyl-3-methyl-azetidin-3-amine] | 1 to 50 nM | 1 to 50 nM | 1 to 50 nM | 1 to 50 nM | 1 to 50 nM |
| C[C@@H](Oc1ccc2[nH]nc(-c3ccc(N4CC(C)(N5CCP(C)(=O)CC5)C4)nc3)c2c1)c1c(Cl)cncc1Cl [Example 226, (R)-1-(1-(5-(5-(1-(3,5-dichloropyridin-4-yl)ethoxy)-1H-indazol-3-yl)pyridin-2-yl)-3-methylazetidin-3-yl)-4-methyl-1,4-azaphosphinane 4-oxide] | 1 to 50 nM | 1 to 50 nM | 1 to 50 nM | 1 to 50 nM | 1 to 50 nM |
| C[C@@H](Oc1ccc2[nH]nc(-c3ccc(N4CC(C)(NCP(C)(C)=O)C4)nc3)c2c1)c1c(Cl)cncc1Cl [Example 230, 1-[5-[5-[(1R)-1-(3,5-dichloro-4-pyridyl)ethoxy]-1H-indazol-3-yl]-2-pyridyl]-N-(di-methylphosphoryl-methyl)-3-methyl-azetidin-3-amine] | 1 to 50 nM | 1 to 50 nM | 1 to 50 nM | 1 to 50 nM | 1 to 50 nM |
| C[C@@H](Oc1ccc2[nH]nc(-c3ccc(N4CC(C)(N5C[C@H]6C[C@@H]5CO6)C4)nc3)c2c1)c1c(Cl)cncc1Cl [Example 231, (1R,4R)-5-(1-(5-(5-((R)-1-(3,5-dichloropyridin-4-yl)ethoxy)-1H-indazol-3-yl)pyridin-2-yl)-3-methylazetidin-3-yl)-2-oxa-5-aza-bicyclo[2.2.1]hep-tane] | 1 to 50 nM | 1 to 50 nM | 1 to 50 nM | 1 to 50 nM | 1 to 50 nM |
| C[C@@H](Oc1ccc2[nH]nc(-c3cnc(N4CC(C)(NCC5CC5)C4)nc3)c2c1)c1c(Cl)cncc1Cl [Example 235, (R)-N-(cyclo-propylmethyl)-1-(5-(5-(1-(3,5-dichloropyridin-4-yl)ethoxy)-1H-indazol-3-yl)pyrimidin-2-yl)-3-methylazetidin-3-amine] | 1 to 50 nM | 1 to 50 nM | 1 to 50 nM | 1 to 50 nM | 1 to 50 nM |
| CC(C)NC1(C)CN(c2ncc(-c3n[nH]c4ccc(O[C@H](C)c5c(Cl)cncc5Cl)cc34)cn2)C1 [Example 236, (R)-1-(5-(5-(1-(3,5-dichloropyridin-4-yl)ethoxy)-1H-indazol-3-yl)pyrimidin-2-yl)-N-isopropyl-3-methylazetidin-3-amine] | 1 to 50 nM | 1 to 50 nM | 1 to 50 nM | 1 to 50 nM | 1 to 50 nM |
| C[C@@H](Oc1cc2c(-c3cnc(N4CC(C)(CN5CCCC5)C4)c(C#N)c3)n[nH]c2cc1F)c1c(Cl)cncc1Cl [Example 317, (R)-5-(5-(1-(3,5-dichloropyridin-4-yl)ethoxy)-6-fluoro-1H-indazol-3-yl)-2-(3-methyl-3-(pyrrolidin-1-ylmethyl)azetidin-1-yl)nicotinonitrile] | 1 to 50 nM | 50 to 300 nM | 1 to 50 nM | 50 to 300 nM | 1 to 50 nM |

The next lines start with the values.

| Kd (FGFR3 (V555M)) | Kd (FGFR2) | Kd (FGFR4) | Kd (FGFR1) | Kd (FGFR3) | SMILES |
| --- | --- | --- | --- | --- | --- |
| 1 to 50 nM | 300 to 1000 nM | 300 to 1000 nM | 300 to 1000 nM | 50 to 300 nM | C[C@@H](Oc1ccc2[nH]nc(-c3ccc(N4CC(C)(CN5CCCC5)C4)nc3)c2c1F)c1c(Cl)cncc1Cl [Example 191, (R)-5-(1-(3,5-dichloropyridin-4-yl)ethoxy)-4-fluoro-3-(6-(3-methyl-3-(pyrrolidin-1-ylmethyl)azetidin-1-yl)pyridin-3-yl)-1H-indazole] |
| 1 to 50 nM | 300 to 1000 nM | 300 to 1000 nM | 300 to 1000 nM | 50 to 300 nM | C[C@@H](Oc1ccc2[nH]nc(-c3ccc(N4CC(C)(NCCO)C4)nc3)c2c1F)c1c(Cl)cncc1Cl [Example 192, (R)-2-((1-(5-(5-(1-(3,5-dichloro-pyridin-4-yl)ethoxy)-4-fluoro-1H-inda-zol-3-yl)pyridin-2-yl)-3-methylazetidin-3-yl)amino)ethanol] |
| 1 to 50 nM | 1 to 50 nM | 1 to 50 nM | 1 to 50 nM | 1 to 50 nM | C[C@@H](Oc1cc2c(-c3cnc(N4CC(C)(CP(C)(C)=O)C4)c(F)c3)n[nH]c2cc1F)c1c(Cl)cncc1Cl [Example 193, (R)-((1-(5-(5-(1-(3,5-dichloro-pyridin-4-yl)ethoxy)-6-fluoro-1H-indazol-3-yl)-3-fluoropyridin-2-yl)-3-methylazetidin-3-yl)methyl)dimethyl-phosphine oxide] |
| 1 to 50 nM | 1 to 50 nM | 1 to 50 nM | 1 to 50 nM | 1 to 50 nM | COc1cc2[nH]nc(-c3cnc(N4CC(C)(CS(C)(=O)=O)C4)c(F)c3)c2cc1O[C@H](C)c1c(Cl)cncc1Cl [Example 194, (R)-5-(1-(3,5-dichloropyridin-4-yl)ethoxy)-3-(5-fluoro-6-(3-methyl-3-((methyl-sulfonyl)meth-yl)azetidin-1-yl)pyridin-3-yl)-6-methoxy-1H-indazole] |
| 1 to 50 nM | 1 to 50 nM | 1 to 50 nM | 1 to 50 nM | 1 to 50 nM | C[C@@H](Oc1ccc2[nH]nc(-c3cnc(N4CC(C)(CS(C)(=O)=O)C4)nc3)c2c1)c1c(Cl)cncc1Cl [Example 195, (R)-5-(1-(3,5-dichloro-pyridin-4-yl)ethoxy)-3-(2-(3-methyl-3-((methylsulfonyl)-methyl)azetidin-1-yl)pyrimidin-5-yl)-1H-indazole] |
| 1 to 50 nM | 1 to 50 nM | 1 to 50 nM | 1 to 50 nM | 1 to 50 nM | CNC1(C)CN(c2ccc(-c3n[nH]c4ccc(O[C@H](C)c5c(Cl)cncc5Cl)cc34)cn2)C1 [Example 233, (R)-1-(5-(5-(1-(3,5-dichloropyridin-4-yl)ethoxy)-1H-indazol-3-yl)pyridin-2-yl)-N,3-dimethylazetidin-3-amine] |
| 1 to 50 nM | 1 to 50 nM | 1 to 50 nM | 1 to 50 nM | 1 to 50 nM | C=CCNC1(C)CN(c2ncc(-c3n[nH]c4ccc(O[C@H](C)c5c(Cl)cncc5Cl)cc34)cn2)C1 [Example 234, (R)-N-ally1-1-(5-(5-(1-(3,5-dichloropyridin-4-yl)ethoxy)-1H-indazol-3-yl)pyrimidin-2-yl)-3-methylazetidin-3-amine] |
| 1 to 50 nM | 1 to 50 nM | 1 to 50 nM | 1 to 50 nM | 1 to 50 nM | CCNC1(C)CN(c2ccc(-c3n[nH]c4ccc(O[C@H](C)c5c(Cl)cncc5Cl)cc34)cn2)C1 [Example 239, 1-[5-[5-[(1R)-1-(3,5-dichloro-4-pyridyl)ethoxy]-1H-indazol-3-yl]-2-pyridyl]-N-ethyl-3-methyl-azetidin-3-amine] |
| > 1000 nM | > 1000 nM | 50 to 300 nM | > 1000 nM | > 1000 nM | C[C@@H](Oc1ccc2[nH]nc(-c3cnc(N4CC(C)(NCC5CC5)C4)c(C#N)c3)c2c1F)c1c(Cl)cncc1Cl [Example 318, (R)-2-(3-((cyclopropylmethyl)amino)-3-methylazetidin-1-yl)-5-(5-(1-(3,5-dichloropyridin-4-yl)ethoxy)-4-fluoro-1H-indazol-3-yl)nicotinonitrile] |
